Measured values: patent publication US4495189A, “Condensed pyrimidines” (priority 1975, dated 1985)
Like-named read-outs stand apart in the source and are kept apart here.

Tests used:
rat paw oedema = assay: Antiphlogistic activity, rat paw oedema method (Domenju); format: in vivo
Experimental: The antiphlogistic activity was tested by the rat paw oedema method (Domenju, R: Ann. Univ. Saraviensis 1,317, 1953). The compound were compared with the currently used therapeutic agents Phenylbutazone, aspirin, Indomethacin, Mebron and Amidazophenum.

PGE1 [1] = assay: Oedema inhibition, inflammation caused by prostaglandin E1; format: in vivo
Text: (§1) Thus, it is appropriate to test the effectiveness of a representative compound of the invention in the inflammation response caused by prostaglandin E1 and E2, particularly from the point of view of the vessel wall permeability, which plays an important role in the inflammation.

PGE2 [2] = assay: Oedema inhibition, inflammation caused by prostaglandin E2; format: in vivo
Text: as §1

PGE1 [3] = assay: Vessel wall permeability inhibition, prostaglandin E1; format: in vivo
Text: as §1

PGE2 [4] = assay: Vessel wall permeability inhibition, prostaglandin E2; format: in vivo
Text: as §1

[5] = Antiphlogistic activity, method of Northove; format: in vivo; conditions: 100 mg/kg
Text: Favorable antiphlogistic properties were found in tests carried out by the method of Northove.

in vivo [6] = conditions: rat, po
in vivo [7] = conditions: mouse, po
[8] = system: collagen induced thrombocyte aggregation; assay: Inhibition of collagen induced thrombocyte aggregation (in vitro); format: cell-based
Text: In Table 6 the inhibition of collagen induced thrombocyte aggregation under in vitro conditions is shown.

rats [9] = assay: Chronic toxicity test, ulcerogenicity in rats; format: in vivo; conditions: one-month old rats, 50 mg/kg, chronic toxicity tests
[10] = Acute toxicity on rats (i.v.); conditions: rat, in vivo, iv
Text: (§2) Acute toxicity, analgesic and platelet aggregation inhibiting activity of "CH-105" was compared with the same activities of RIMAZOLIUM. RIMAZOLIUM is a commercial product, which is a quaternary salt chemically, but exerts its activity as a tautomeric enamine [Arzneimittel Forschung 21, 717-719 and 719-727 (1971)].

rats [11] = assay: Analgesic activity on rats, hot plate, per os; format: in vivo; conditions: Rattus norvegicus, po
Text: as §2

mice = assay: Analgesic activity on "Writing" test, on mice; format: in vivo; conditions: Mus musculus
Text: as §2

platelet aggregation = assay: Platelet aggregation inhibiting activity, comparison of CH-105 and Rimazolium; conditions: same conditions for CH-105 and Rimazolium
Text: as §2

[12] = Pharmacological and toxicological tests (summary)

Structure (SMILES): CCCCC1C(=O)N(c2ccccc2)N(c2ccccc2)C1=O [Phenylbutazone]
- Oedema inhibiting effect in %, 1 hour after the administration of the substance (rat paw oedema; 100 mg/kg): 2%
- Oedema inhibiting effect in %, 2 hours after the administration of the substance (rat paw oedema; 100 mg/kg): 2%
- Oedema inhibiting effect in %, 1 hour after the administration of the substance (rat paw oedema; 200 mg/kg): 11%
- Oedema inhibiting effect in %, 2 hours after the administration of the substance (rat paw oedema; 200 mg/kg): 10%
- Oedema inhibiting effect in %, 24 hours after the administration of the substance (rat paw oedema; 200 mg/kg): 3%
- Oedema inhibition %, PGE1 (PGE1 [1]; 100 mg/kg): 35%
- Oedema inhibition %, PGE1 (PGE1 [1]; 200 mg/kg): 15%
- Oedema inhibition %, PGE2 (PGE2 [2]; 100 mg/kg): 10%
- Oedema inhibition %, PGE2 (PGE2 [2]; 200 mg/kg): 28%
- Vessel wall permeability inhibition %, PGE1 (PGE1 [3]; 100 mg/kg): 10%
- Vessel wall permeability inhibition %, PGE1 (PGE1 [3]; 200 mg/kg): 20%
- Vessel wall permeability inhibition %, PGE2 (PGE2 [4]; 100 mg/kg): 5%
- Vessel wall permeability inhibition %, PGE2 (PGE2 [4]; 200 mg/kg): 20%
- Antiphlogistic activity (%), 1 hour [5]: 13%
- Antiphlogistic activity (%), 2 hours [5]: 20%
- Antiphlogistic activity (%), 24 hours [5]: 0%
- ED50 (modified writhing test): 63 mg/kg

Structure (SMILES): COc1ccc2c(c1)c(CC(=O)O)c(C)n2C(=O)c1ccc(Cl)cc1 [Indomethacin]
- ED50 (modified writhing test): 2.4 mg/kg
- Therapeutic Index (modified writhing test): 12

Structure (SMILES): CC(=O)Oc1ccccc1C(=O)O [Aspirin]
- Oedema inhibition %, PGE1 (PGE1 [1]; 200 mg/kg): 41%
- Oedema inhibition %, PGE1 (PGE1 [1]; 500 mg/kg): 45%
- Oedema inhibition %, PGE2 (PGE2 [2]; 200 mg/kg): 20%
- Oedema inhibition %, PGE2 (PGE2 [2]; 500 mg/kg): 54%
- Vessel wall permeability inhibition %, PGE1 (PGE1 [3]; 200 mg/kg): 30%
- Vessel wall permeability inhibition %, PGE1 (PGE1 [3]; 500 mg/kg): 42%
- Vessel wall permeability inhibition %, PGE2 (PGE2 [4]; 200 mg/kg): 25%
- Vessel wall permeability inhibition %, PGE2 (PGE2 [4]; 500 mg/kg): 50%
- LD50 (in vivo [6]): 1600 mg/kg
- LD50 (in vivo [7]): 1100 mg/kg

Structure (SMILES): COc1cc(C)nc(-n2nc(C)cc2OC)n1 [Mebron]
- Oedema inhibiting effect in %, 1 hour after the administration of the substance (rat paw oedema; 100 mg/kg): 8%
- Oedema inhibiting effect in %, 2 hours after the administration of the substance (rat paw oedema; 100 mg/kg): 22%
- Oedema inhibiting effect in %, 1 hour after the administration of the substance (rat paw oedema; 300 mg/kg): 25%
- Oedema inhibiting effect in %, 2 hours after the administration of the substance (rat paw oedema; 300 mg/kg): 25%
- Oedema inhibiting effect in %, 24 hours after the administration of the substance (rat paw oedema; 300 mg/kg): 3%
- Antiphlogistic activity (%), 1 hour [5]: 23%
- Antiphlogistic activity (%), 2 hours [5]: 23%
- Antiphlogistic activity (%), 24 hours [5]: 0%
- Therapeutic Index (in vivo): 4.3
- ED50 (modified writhing test): 380 mg/kg

Structure (SMILES): CC1CCC=C2N(C)C=C(C(=O)NC(C)(C)C)C(=O)N21 (centres unmarked) [Example 5, 1,6-dimethyl-3-(N-tert-butyl-carbamoyl)-4-oxo-1,6,7,8-tetrahydro-4H-pyrido(1,2a)pyrimidine]
- Oedema inhibiting effect in %, 2 hours after the administration of the substance (rat paw oedema; 125 mg/kg): 50%
- Inhibition of collagen induced thrombocyte aggregation in % ([8]; 1 × 10^-3 mole): 99%
- Inhibition of collagen induced thrombocyte aggregation in % ([8]; 1 × 10^-4 mole): 85%

Structure (SMILES): CC1CCC=C2N(C)C=C(C(N)=O)C(=O)N21 (centres unmarked) [CH-105, 1,6-dimethyl-3-carbamoyl-4-oxo-1,6,7,8-tetrahydro-4H-pyrido[1,2-a]pyrimidine]
- Oedema inhibiting effect in %, 1 hour after the administration of the substance (rat paw oedema; 100 mg/kg): 25%
- Oedema inhibiting effect in %, 2 hours after the administration of the substance (rat paw oedema; 100 mg/kg): 34%
- Oedema inhibiting effect in %, 1 hour after the administration of the substance (rat paw oedema; 300 mg/kg): 45%
- Oedema inhibiting effect in %, 2 hours after the administration of the substance (rat paw oedema; 300 mg/kg): 52%
- Oedema inhibiting effect in %, 24 hours after the administration of the substance (rat paw oedema; 300 mg/kg): 8%
- Oedema inhibition %, PGE1 (PGE1 [1]; 200 mg/kg): 30%
- Oedema inhibition %, PGE1 (PGE1 [1]; 500 mg/kg): 42%
- activity as an oedema inhibitor or a vessel wall permeability reducing agent (PGE1 [1]; data of Table 2, PGE1 and PGE2, compared with aspirin): activity of the same range as the known active prostaglandinantagonist, aspirin
- Oedema inhibition %, PGE2 (PGE2 [2]; 200 mg/kg): 31%
- Oedema inhibition %, PGE2 (PGE2 [2]; 500 mg/kg): 45%
- Vessel wall permeability inhibition %, PGE1 (PGE1 [3]; 200 mg/kg): 40%
- Vessel wall permeability inhibition %, PGE1 (PGE1 [3]; 500 mg/kg): 40%
- Vessel wall permeability inhibition %, PGE2 (PGE2 [4]; 200 mg/kg): 35%
- Vessel wall permeability inhibition %, PGE2 (PGE2 [4]; 500 mg/kg): 50%
- Antiphlogistic activity (%), 1 hour [5]: 40%
- Antiphlogistic activity (%), 2 hours [5]: 55%
- Antiphlogistic activity (%), 24 hours [5]: 30%
- ulcerogenicity (rats [9]): not ulcerogenic
- Inhibition of collagen induced thrombocyte aggregation in % ([8]; 1 × 10^-3 mole): 100%
- Inhibition of collagen induced thrombocyte aggregation in % ([8]; 1 × 10^-4 mole): 90%
- LD50 [10]: 960 µmol/kg
- ED50 (rats [11]): 410 µmol/kg
- ED50 (mice): 210 µmol/kg
- platelet aggregation inhibiting activity (platelet aggregation): excellent platelet aggregation inhibiting activity
- antiphlogistic activity, analgesic activity and therapeutic index (in words) [12]: significant antiphlogistic activity, analgesic activity and have a favorable therapeutic index
- ED50 (modified writhing test): 70 mg/kg
- Therapeutic Index (modified writhing test): 14
- LD50 (in vivo [6]): 750 mg/kg
- LD50 (in vivo [7]): 975 mg/kg

Structure (SMILES): CC1CCC=C2N(C)C=C(C(=O)Nc3ccccc3)C(=O)N21 (centres unmarked) [Example 6, 1,6-dimethyl-3-(N-phenylcarbamoyl)-4-oxo-1,6,7,8-tetrahydro-4H-pyrido(1,2a)pyrimidine]
- Oedema inhibiting effect in %, 2 hours after the administration of the substance (rat paw oedema; 500 mg/kg): 53%
- Inhibition of collagen induced thrombocyte aggregation in % ([8]; 1 × 10^-3 mole): 56%
- Inhibition of collagen induced thrombocyte aggregation in % ([8]; 1 × 10^-4 mole): 29%

Structure (SMILES): CNC(=O)C1=CN(C)C2=CCCC(C)N2C1=O (centres unmarked) [Example 7, 1,6-dimethyl-3-(N-methyl-carbamoyl)-4-oxo-1,6,7,8-tetrahydro-4H-pyrido(1,2a)pyrimidine]
- Oedema inhibiting effect in %, 2 hours after the administration of the substance (rat paw oedema; 500 mg/kg): 60%
- Inhibition of collagen induced thrombocyte aggregation in % ([8]; 1 × 10^-3 mole): 100%
- Inhibition of collagen induced thrombocyte aggregation in % ([8]; 1 × 10^-4 mole): 95%

Structure (SMILES): CC1CCC=C2N(C)C=C(C(=O)NCCc3ccccc3)C(=O)N21 (centres unmarked) [Example 11, 1,6-dimethyl-3-[N-(2-phenyl-ethyl)-carbamoyl]-4-oxo-1,6,7,8-tetrahydro-4H-pyrido(1,2a)pyrimidine]
- Oedema inhibiting effect in %, 2 hours after the administration of the substance (rat paw oedema; 125 mg/kg): 38%
- Inhibition of collagen induced thrombocyte aggregation in % ([8]; 1 × 10^-3 mole): 96%
- Inhibition of collagen induced thrombocyte aggregation in % ([8]; 1 × 10^-4 mole): 92%

Structure (SMILES): CCOC(=O)c1c[n+](C)c2n(c1=O)C(C)CCC2 (centres unmarked) [Rimazolium, 1,6-dimethyl-3-carbethoxy-4-oxo-6,7,8,9-tetrahydrohomopyrimidazol-methylsulfate]
- LD50 [10]: 610 µmol/kg
- ED50 (rats [11]): 620 µmol/kg
- ED50 (mice): 1050 µmol/kg
- platelet aggregation inhibiting activity (platelet aggregation): practically ineffective

Structure (SMILES): CC1CCC=C2N(C)C=C(C(=O)NCCC(c3ccccc3)c3ccccc3)C(=O)N21 (centres unmarked) [Example 9, 1,6-dimethyl-3-[N-(3,3-diphenyl-propyl)-carbamoyl]-4-oxo-1,6,7,8-tetrahydro-4H-pyrido(1,2a)pyrimidine]
- Inhibition of collagen induced thrombocyte aggregation in % ([8]; 1 × 10^-3 mole): 70%
- Inhibition of collagen induced thrombocyte aggregation in % ([8]; 1 × 10^-4 mole): 60%
